Assay results reported in article PMC11532494 (Nature Communications, 2024).
Where “and” joins values, the source holds several entries; their conditions need not be identical. Identical values can stand only once. Like-named read-outs stand apart in the source and are kept apart here. No end group written: not given here. *: point of attachment. AMC = Cc1cc(=O)oc2cc(N*)ccc12

What was measured:
PsApaH (4) [1] = molecular target: T1, PsApaH (4) (Pseudomonas sp. M30-35, UniProt A0A1Y0KY79); experiment: Acetyl-polyamine deacetylase assay; format: biochemical; conditions: single samples (replicates)
Target sequence in this assay (A0A1Y0KY79 1-342 limits assumed): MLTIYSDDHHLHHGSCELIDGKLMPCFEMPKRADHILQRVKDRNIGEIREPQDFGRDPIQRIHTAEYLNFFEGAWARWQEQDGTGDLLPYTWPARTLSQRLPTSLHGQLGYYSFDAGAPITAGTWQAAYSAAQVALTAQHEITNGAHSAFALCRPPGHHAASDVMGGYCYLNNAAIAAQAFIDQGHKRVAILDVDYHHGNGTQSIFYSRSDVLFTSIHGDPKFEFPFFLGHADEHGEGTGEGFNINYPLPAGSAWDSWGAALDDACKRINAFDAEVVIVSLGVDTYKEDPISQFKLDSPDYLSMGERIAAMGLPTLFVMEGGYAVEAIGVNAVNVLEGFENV

PA1409 = PA1409 (Pseudomonas aeruginosa, UniProt Q9I3T5); experiment: Acetyl-polyamine deacetylase assay (positive control); format: biochemical; conditions: sheet Figure 2d
Sequence of PA1409 (Q9I3T5 whole entry): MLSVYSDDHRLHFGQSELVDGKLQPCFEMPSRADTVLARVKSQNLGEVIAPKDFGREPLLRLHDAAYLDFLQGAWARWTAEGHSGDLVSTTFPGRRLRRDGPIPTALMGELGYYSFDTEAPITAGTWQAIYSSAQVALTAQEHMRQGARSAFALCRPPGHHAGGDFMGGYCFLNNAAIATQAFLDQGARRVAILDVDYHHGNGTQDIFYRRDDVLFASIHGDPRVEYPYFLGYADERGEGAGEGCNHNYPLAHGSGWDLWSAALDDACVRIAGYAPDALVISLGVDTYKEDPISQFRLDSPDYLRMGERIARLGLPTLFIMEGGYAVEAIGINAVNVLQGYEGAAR

VsHdaH (1b) [2] = format: biochemical, Vibrio sp.; conditions: VsHdaH (1b) 3µM; single samples (replicates)
RsPrpH (1b) [3] = experiment: Acetyl-polyamine deacetylase assay; format: biochemical, Rhizorhabdus sp.; conditions: RsPrpH 3µM; single samples (replicates)
RwDmhA (1b) [4] = molecular target: T2, RwDmhA (1b) (Rhizorhabdus wittichii, UniProt A0A067XIQ6); format: biochemical; conditions: RwDmhA (1b) 3µM; single samples (replicates)
Target sequence in this assay (A0A067XIQ6 1-369): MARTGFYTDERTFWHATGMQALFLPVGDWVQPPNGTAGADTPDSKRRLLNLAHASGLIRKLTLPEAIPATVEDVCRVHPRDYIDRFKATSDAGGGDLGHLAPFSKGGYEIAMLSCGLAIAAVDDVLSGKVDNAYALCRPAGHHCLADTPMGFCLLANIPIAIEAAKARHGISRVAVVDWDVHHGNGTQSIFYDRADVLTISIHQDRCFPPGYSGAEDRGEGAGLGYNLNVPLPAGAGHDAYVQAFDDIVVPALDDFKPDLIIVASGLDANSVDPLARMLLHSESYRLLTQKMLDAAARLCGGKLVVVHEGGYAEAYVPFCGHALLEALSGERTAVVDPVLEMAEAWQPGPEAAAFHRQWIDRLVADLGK

KpHdaH (1b) [5] = molecular target: T3, KpHdaH (1b) (Klebsiella pneumoniae, UniProt A0A377Z5F6); format: biochemical; conditions: KpKDAC (1b); single samples (replicates)
Target sequence in this assay (A0A377Z5F6 1-371): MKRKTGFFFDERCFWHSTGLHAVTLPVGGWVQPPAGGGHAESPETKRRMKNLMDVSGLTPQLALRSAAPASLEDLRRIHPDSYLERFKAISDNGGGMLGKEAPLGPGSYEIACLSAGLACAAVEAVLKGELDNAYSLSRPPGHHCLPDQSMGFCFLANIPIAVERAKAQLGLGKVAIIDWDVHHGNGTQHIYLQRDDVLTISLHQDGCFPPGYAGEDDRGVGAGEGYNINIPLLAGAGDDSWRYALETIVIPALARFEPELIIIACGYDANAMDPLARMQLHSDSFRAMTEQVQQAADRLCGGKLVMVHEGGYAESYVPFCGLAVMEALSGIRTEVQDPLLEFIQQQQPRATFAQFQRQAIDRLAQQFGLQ

BsAcuC (2c) [6] = molecular target: T4, BsAcuC (2c) (Bacillus subtilis, UniProt P39067); experiment: Acetyl-polyamine deacetylase assay; format: biochemical; conditions: BsAcuC (2c) 3µM; single samples (replicates)
T4 construct: made in house; host or cells: E. coli BL21 (DE3)
T4 sequence (P39067 1-387): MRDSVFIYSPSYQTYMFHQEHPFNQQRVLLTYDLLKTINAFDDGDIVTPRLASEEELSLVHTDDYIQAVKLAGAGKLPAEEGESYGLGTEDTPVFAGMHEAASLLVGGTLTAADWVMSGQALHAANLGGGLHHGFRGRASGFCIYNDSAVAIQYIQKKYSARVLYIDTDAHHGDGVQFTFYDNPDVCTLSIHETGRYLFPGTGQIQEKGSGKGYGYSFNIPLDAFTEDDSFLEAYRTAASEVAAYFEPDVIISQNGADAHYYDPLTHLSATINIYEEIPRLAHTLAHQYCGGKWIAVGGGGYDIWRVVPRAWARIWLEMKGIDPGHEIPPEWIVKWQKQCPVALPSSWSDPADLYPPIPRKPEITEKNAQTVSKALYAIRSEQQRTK

VcHdaH (5b) [7] = experiment: Acetyl-polyamine deacetylase assay; format: biochemical, Vibrio cholerae; conditions: VcHdaH (5b) 6µM; single samples (replicates)
VsHdaH (1b) [8] = format: biochemical, Vibrio sp.; conditions: VKDAC
RsPrpH (1b) [9] = experiment: Substrate screening assay (acyl-peptide-AMC); format: biochemical, Rhizorhabdus sp.; conditions: RsPrpH (1b); for [AMC]: Transform RFU in [AMC]
RwDmhA (1b) [10] = molecular target: T2, RwDmhA (1b); format: biochemical; conditions: RwDmhA (1b)
KpHdaH (1b) [11] = molecular target: T3, KpHdaH (1b); format: biochemical; conditions: KpHdaH (1b)
BsAcuC (2c) [12] = molecular target: T4, BsAcuC (2c); experiment: Substrate screening assay (acyl-peptide-AMC); format: biochemical; conditions: BsAcuC (2c); for [AMC]: Transform RFU in [AMC]
Procedure: (§1) Experiments with SIRT2 and SIRT5 were supplemented with NAD^+ (500 µM). Thereafter, a solution of trypsin (25 µL, 5.0 mg/mL; final concentration of 2.5 mg/mL) was added, and the development of the assay was allowed to proceed for 90 min at room temperature before fluorescence analysis. […] To this end, a single category is given to all conversions >48% on the heatmap. […] For the H4-derived peptide LGKbio no positive control was available.

VcHdaH (5b) [13] = format: biochemical, Vibrio cholerae; conditions: VcHdaH (5b); for [AMC]: Transform RFU in [AMC]
PsApaH (4) [14] = molecular target: T1, PsApaH (4); format: biochemical; conditions: PsApaH (4)
Procedure: as §1

LcApaH (3) = LcApaH (3) (Legionella cherrii, UniProt A0A0W0SGS1); format: biochemical
Controls = experiment: Substrate screening assay (acyl-peptide-AMC), control enzymes; format: biochemical; conditions: for [AMC]: Transform RFU in [AMC]

## CC(=O)NCCCNCCCCN [N1-acetyl-spermidine]
PsApaH (4) [1]
  acetate released, g/l: 0.0007937 g/L and 0.001587 g/L
  acetate released, mM: 0.01322 mM and 0.02643 mM
PA1409; absorbance difference between the two time points
  A1-A2: 0.377 and 0.374
PA1409; absorbance difference minus mean blank
  (A1-A2)-B: 0.331 and 0.328
VsHdaH (1b) [2]
  acetate released, g/l: -0.0001305 g/L
  acetate released, mM: -0.002174 mM
  mM normalized to enzyme concentration: -0.0007246 mM
RsPrpH (1b) [3]
  acetate released, g/l: 0.0006527 g/L and 0.002219 g/L
  acetate released, mM: 0.01087 mM and 0.03696 mM
  mM normalized to enzyme concentration: 0.003623 mM and 0.01232 mM
RwDmhA (1b) [4]
  acetate released, g/l: -0.0001305 g/L and -0.0003916 g/L
  acetate released, mM: -0.002174 mM and -0.006522 mM
  mM normalized to enzyme concentration: -0.0007246 mM and -0.002174 mM
KpHdaH (1b) [5]
  acetate released, g/l: 0.007111 g/L and 0.006667 g/L
  mM normalized to enzyme concentration: 0.02368 mM and 0.0222 mM
BsAcuC (2c) [6]
  acetate released, g/l: 0.001175 g/L and 0.0003916 g/L
  acetate released, mM: 0.01957 mM and 0.006522 mM
  mM normalized to enzyme concentration: 0.006522 mM and 0.002174 mM
VcHdaH (5b) [7]
  acetate released, g/l: -0.0009138 g/L and 0.0001305 g/L
  acetate released, mM: -0.01522 mM and 0.002174 mM
  mM normalized to enzyme concentration: -0.002536 mM and 0.0003623 mM

## QPKKdec (QPKK-{AMC}; not fully specified (residue 4); printed as QPKKdec; also: decanoyl-lysine (which Lys not given here); UniProt P04637 317-320, looked up, fragment)
VsHdaH (1b) [8]; Transform RFU*2, Sample 1
  Relative Fluorescene Units (RFU): 126 RFU
VsHdaH (1b) [8]; Transform RFU*2, Sample 2
  Relative Fluorescene Units (RFU): 202 RFU
VsHdaH (1b) [8]; Sample 1
  Relative Fluorescene Units (RFU): 63 RFU
VsHdaH (1b) [8]; Sample 2
  Relative Fluorescene Units (RFU): 101 RFU
RsPrpH (1b) [9]; Sample 1
  Relative Fluorescene Units (RFU): 32 RFU
  [AMC]: 31.25 nM
RsPrpH (1b) [9]; Sample 2
  Relative Fluorescene Units (RFU): 43 RFU
  [AMC]: 41.99 nM
RsPrpH (1b) [9]; Transform RFU*2, Sample 1
  Relative Fluorescene Units (RFU): 64 RFU
RsPrpH (1b) [9]; Transform RFU*2, Sample 2
  Relative Fluorescene Units (RFU): 86 RFU
RwDmhA (1b) [10]; Sample 1
  Relative Fluorescene Units (RFU): 19 RFU
RwDmhA (1b) [10]; Sample 2
  Relative Fluorescene Units (RFU): 47 RFU
RwDmhA (1b) [10]; Transform RFU*2, Sample 1
  Relative Fluorescene Units (RFU): 38 RFU
RwDmhA (1b) [10]; Transform RFU*2, Sample 2
  Relative Fluorescene Units (RFU): 94 RFU
KpHdaH (1b) [11]; Sample 1
  Relative Fluorescene Units (RFU): 50 RFU
KpHdaH (1b) [11]; Sample 2
  Relative Fluorescene Units (RFU): 66 RFU
KpHdaH (1b) [11]; Transform RFU*2, Sample 1
  Relative Fluorescene Units (RFU): 100 RFU
KpHdaH (1b) [11]; Transform RFU*2, Sample 2
  Relative Fluorescene Units (RFU): 132 RFU
BsAcuC (2c) [12]; Sample 1
  Relative Fluorescene Units (RFU): 1598 RFU
  [AMC]: 1560.55 nM
BsAcuC (2c) [12]; Sample 2
  Relative Fluorescene Units (RFU): 1156 RFU
  [AMC]: 1128.91 nM
BsAcuC (2c) [12]; Transform RFU*2, Sample 1
  Relative Fluorescene Units (RFU): 3196 RFU
BsAcuC (2c) [12]; Transform RFU*2, Sample 2
  Relative Fluorescene Units (RFU): 2312 RFU
VcHdaH (5b) [13]; Sample 1
  [AMC]: 77.15 nM
  Relative Fluorescene Units (RFU): 79 RFU
VcHdaH (5b) [13]; Sample 2
  [AMC]: 27.34 nM
  Relative Fluorescene Units (RFU): 28 RFU
VcHdaH (5b) [13]; Transform RFU*2, Sample 1
  Relative Fluorescene Units (RFU): 158 RFU
VcHdaH (5b) [13]; Transform RFU*2, Sample 2
  Relative Fluorescene Units (RFU): 56 RFU
PsApaH (4) [14]; Sample 1
  Relative Fluorescene Units (RFU): 94 RFU
PsApaH (4) [14]; Sample 2
  Relative Fluorescene Units (RFU): 100 RFU
PsApaH (4) [14]; Transform RFU*2, Sample 1
  Relative Fluorescene Units (RFU): 188 RFU
PsApaH (4) [14]; Transform RFU*2, Sample 2
  Relative Fluorescene Units (RFU): 200 RFU
LcApaH (3)
  [AMC]: 143.55 nM and 182.62 nM
Controls
  Relative Fluorescene Units (RFU): 14990 RFU and 17431 RFU
Controls; Controls, Sample 1
  [AMC]: 14.63867 µM
Controls; Controls, Sample 2
  [AMC]: 17.02246 µM
Controls; Transform RFU*2, Controls, Sample 1
  Relative Fluorescene Units (RFU): 29980 RFU
Controls; Transform RFU*2, Controls, Sample 2
  Relative Fluorescene Units (RFU): 34862 RFU
